# From patent publication US20230212131A1, “COLLAGEN 1 TRANSLATION INHIBITORS AND METHODS OF USE THEREOF” (Anima Biotech Inc., priority 2020, published 2023)
# System: collagen 1 (COL1)
# Assay: WI-38 collagen 1 inhibition assay
# Type: cell-based, human
# Conditions: Cellular EC50, WI-38 cells; values are classes of LogEC50
# Excerpt: All compounds were profiled for cellular potency in inhibition of collagen 1 (COL1) protein translation using a phenotypic screening platform.
# WI-38 cells (ATCC® CCL-75™) were maintained in MEM EAGLE (NEAA) W. GLUTAMIN (Biological Industries, Cat. 06-1040-15-1A) containing 10% fetal bovine serum (FBS) and 1% Penicillin-Streptomycin Solution. To synchronize the cells (cell cycle synchronization) prior to induction of collagen synthesis, the cells were starved using DMEM-low glucose supplemented with 0.25% FBS for two hours and then without FBS for 24 hours. To induce collagen synthesis, the cells were treated with a collagen induction cocktail for the indicated time. Compounds were added with induction.
# Cells in 96-well or 384-well plates were fixed for 20 min in 4% paraformaldehyde (PFA, ENCO, Cat. sc-281692). Following two washes with 1×PBS, cells were treated with hydrogen peroxide (Acros, Cat: 7722-84-1) for 10 minutes and then washed twice with 1×PBS. Cells were then incubated over-night at 4° C. with Anti-Collagen I (Sigma-Aldrich, Cat: C 2456) antibody and washed three times with 1×PBS. Cells were then incubated with a suitable secondary fluorescently-tagged antibody and nuclei stained with DAPI, for 1 hour, and then washed 3 times with 1×PBS.
# Cell images were taken with Operetta (Perkin Elmer, USA), a wide-field fluorescence microscope at 20× magnification. After acquisition, the images were transferred to Columbus software (Perkin-Elmer) for image analysis. In Columbus, cells were identified by their nucleus, using the “Find Nuceli” module and cytoplasm was detected based on the secondary antibody channel. Subsequently, the fluorescent signal was enumerated in the identified cell region. Data was exported to a data analysis and visualization software, Tibco Spotfire, USA.
row,SMILES,COL1 Efficacy (LogEC50)
1,"NC1CCN(c2ccc(C(=O)Nc3nc(-c4ccccc4Cl)cs3)nc2)CC1 [compound 475, 5-(4-aminopiperidin-1-yl)-N-(4-(2-chlorophenyl)thiazol-2-yl)picolinamide]",+++ (+++: <−6)
2,"CC(=O)N1CCN(c2cnc(C(=O)Nc3nc(-c4ccccc4Cl)cs3)c(C)c2)CC1 [compound 458, 5-(4-acetylpiperazin-1-yl)-N-(4-(2-chlorophenyl)thiazol-2-yl)-3-methylpicolinamide]",+++ (+++: <−6)
3,"COCc1ccccc1-c1csc(NC(=O)c2ccc(N3CCN(C(C)=O)CC3)cn2)n1 [compound 469, 5-(4-acetylpiperazin-1-yl)-N-(4-(2-(methoxymethyl)phenyl)thiazol-2-yl)picolinamide]",+++ (+++: <−6)
4,"COc1ccc(C(=O)Nc2nc(-c3ccccc3Cl)cs2)cc1 [Compound 304, N-(4-(2-chlorophenyl)thiazol-2-yl)-4-methoxybenzamide]",+++ (+++: <−6)
5,"Cc1ccc(C(=O)Nc2nc(-c3cccnc3)cs2)cn1 [Compound 323, 6-methyl-N-[4-(3-pyridyl)thiazol-2-yl]pyridine-3-carboxamide]",+ (+: >−5)
6,"Cc1ccc(C(=O)Nc2nc(-c3cnn(C)c3)cs2)cn1 [Compound 317, 6-methyl-N-[4-(1-methylpyrazol-4-yl)thiazol-2-yl]pyridine-3-carboxamide]",+ (+: >−5)
7,"Cc1ncccc1-c1csc(NC(=O)c2ccc(N3CCOCC3)cn2)n1 [compound 371, N-[4-(2-methyl-3-pyridyl)thiazol-2-yl]-5-morpholino-pyridine-2-carboxamide]",++ (++: −5 to −6)
8,Cc1ccc(C(=O)Nc2nc(-c3cc(Cl)sc3Cl)cs2)cc1 [compound 313],+++ (+++: <−6)
9,"O=C(Nc1nc(-c2ccccc2Cl)cs1)[C@H]1C[C@H](N2CCOCC2)C1 [compound 422, (1r,3r)-N-(4-(2-chlorophenyl)thiazol-2-yl)-3-morpholinocyclobutane-1-carboxamide]",++ (++: −5 to −6)
10,"CN(C)CC(=O)N1CCN(c2ccc(C(=O)Nc3nc(-c4ccccc4Cl)cs3)nc2)CC1 [Compound 443, N-(4-(2-chlorophenyl)thiazol-2-yl)-5-(4-(dimethylglycyl)piperazin-1-yl)picolinamide]",+++ (+++: <−6)
11,"COCCOc1ccccc1-c1csc(NC(=O)c2ccc(OC)cc2)n1 [Compound 328, 4-methoxy-N-[4-[2-(2-methoxyethoxy)phenyl]thiazol-2-yl]benzamide]",++ (++: −5 to −6)
12,"CS(=O)(=O)N1CCN(C2CCC(C(=O)Nc3nc(-c4ccccc4Cl)cs3)CC2)CC1 (single isomer, unassigned) [Compound 434, (1s,4s)-N-(4-(2-chlorophenyl)thiazol-2-yl)-4-(4-(methylsulfonyl)piperazin-1-yl)cyclohexane-1-carboxamide]",+ (+: >−5)
13,"O=C(Nc1nc(-c2ccccc2Cl)cs1)c1ccc(C2CCOCC2)cc1 [Compound 380, N-(4-(2-chlorophenyl)thiazol-2-yl)-4-(tetrahydro-2H-pyran-4-yl)benzamide]",+++ (+++: <−6)
14,"COc1ncc(C(=O)Nc2nc(-c3ccccc3Cl)cs2)cn1 [compound 345, N-[4-(2-chlorophenyl)thiazol-2-yl]-2-methoxy-pyrimidine-5-carboxamide]",+++ (+++: <−6)
15,"COCCC(=O)N1CCN(c2ccc(C(=O)Nc3nc(-c4ccccc4Cl)cs3)cc2)CC1 [Compound 376, N-(4-(2-chlorophenyl)thiazol-2-yl)-4-(4-(3-methoxypropanoyl)piperazin-1-yl)benzamide]",+++ (+++: <−6)
16,"COc1cccc(-c2csc(NC(=O)c3ccc(N4CCOCC4)cc3)n2)c1 [compound 357, N-[4-(3-methoxyphenyl)thiazol-2-yl]-4-morpholino-benzamide]",+ (+: >−5)
17,"O=C(Nc1nc(-c2cccnc2)cs1)c1ccc(N2CCOCC2)cc1 [compound 352, 4-morpholino-N-[4-(3-pyridyl)thiazol-2-yl]benzamide]",+ (+: >−5)
18,"O=C(Nc1nc(-c2ccccc2Cl)cs1)c1ccc(N2CCN3CCCC3C2)cn1 (stereo not drawn) [compound 461, N-(4-(2-chlorophenyl)thiazol-2-yl)-5-(hexahydropyrrolo[1,2-a]pyrazin-2(1H)-yl)picolinamide]",+++ (+++: <−6)

row,SMILES,COL1 Efficacy (LogEC50)
1,"O=C(Nc1nc(-c2ccccc2Cl)cs1)c1ccc(N2CCN(C(=O)CCO)CC2)cn1 [Compound 455, N-(4-(2-chlorophenyl)thiazol-2-yl)-5-(4-(3-hydroxypropanoyl)piperazin-1-yl)picolinamide]",+++ (+++: <−6)
2,"COc1ncc(C(=O)Nc2nc(-c3cccnc3C)cs2)cn1 [compound 355, 2-methoxy-N-[4-(2-methyl-3-pyridyl)thiazol-2-yl]pyrimidine-5-carboxamide]",− (−: inactive)
3,"O=C(Nc1nc(-c2ccccc2Cl)cs1)c1ccc(C(=O)N2CCNCC2)cn1 [compound 451, N-(4-(2-chlorophenyl)thiazol-2-yl)-5-(piperazine-1-carbonyl)picolinamide]",++ (++: −5 to −6)
4,"COCc1ncccc1-c1csc(NC(=O)c2ccc(N3CCN(C(C)=O)CC3)cn2)n1 [compound 471, 5-(4-acetylpiperazin-1-yl)-N-(4-(2-(methoxymethyl)pyridin-3-yl)thiazol-2-yl)picolinamide]",+++ (+++: <−6)
5,"O=C(Nc1nc(-c2ccccc2Cl)cs1)c1ccc(N2CCC(CO)CC2)cn1 [compound 479, N-(4-(2-chlorophenyl)thiazol-2-yl)-5-(4-(hydroxymethyl)piperidin-1-yl)picolinamide]",+++ (+++: <−6)
6,"Cc1ncccc1-c1csc(NC(=O)c2ccc(N3CCOCC3)nn2)n1 [compound 373, N-[4-(2-methyl-3-pyridyl)thiazol-2-yl]-6-morpholino-pyridazine-3-carboxamide]",+ (+: >−5)
7,"O=C(Nc1nc(-c2ccccc2Cl)cs1)c1ccc(N2CCC(O)CC2)cn1 [Compound 446, N-(4-(2-chlorophenyl)thiazol-2-yl)-5-(4-hydroxypiperidin-1-yl)picolinamide]",+++ (+++: <−6)
8,"CS(=O)(=O)N1CCN(C(=O)[C@H]2C[C@H](C(=O)Nc3nc(-c4ccccc4Cl)cs3)C2)CC1 [Compound 430, (1r,3r)-N-(4-(2-chlorophenyl)thiazol-2-yl)-3-(4-(methylsulfonyl)piperazine-1-carbonyl)cyclobutane-1-carboxamide]",+ (+: >−5)
9,O=C(Nc1nc(-c2cc(Cl)sc2Cl)cs1)c1ccc(Cl)cc1 [compound 311],++ (++: −5 to −6)
10,"CC(=O)N1CCN(c2ccc(C(=O)Nc3nc(-c4ccccc4Cl)cs3)c(C)c2)CC1 [compound 473, 4-(4-acetylpiperazin-1-yl)-N-(4-(2-chlorophenyl)thiazol-2-yl)-2-methylbenzamide]",+++ (+++: <−6)
11,"O=C(Nc1nc(-c2ccccc2Cl)cs1)c1ccc(N2CCOCC2)nn1 [compound 366, N-[4-(2-chlorophenyl)thiazol-2-yl]-6-morpholino-pyridazine-3-carboxamide]",+++ (+++: <−6)
12,"COCCN1CCN(c2ccc(C(=O)Nc3nc(-c4ccccc4Cl)cs3)cc2)CC1 [Compound 377, N-(4-(2-chlorophenyl)thiazol-2-yl)-4-(4-(2-methoxyethyl)piperazin-1-yl)benzamide]",+++ (+++: <−6)
13,"C#CCCC1(CCN2CCN(c3ccc(C(=O)Nc4nc(-c5ccccc5Cl)cs4)cc3)CC2)N=N1 [compound 484, 4-(4-(2-(3-(but-3-yn-1-yl)-3H-diazirin-3-yl)ethyl)piperazin-1-yl)-N-(4-(2-chlorophenyl)thiazol-2-yl)benzamide hemiformate]",+++ (+++: <−6)
14,"O=C(Nc1nc(-c2ccccc2Cl)cs1)c1ccc(N2CCOCC2)cc1C(F)(F)F [Compound 411, N-(4-(2-chlorophenyl)thiazol-2-yl)-4-morpholino-2-(trifluoromethyl)benzamide]",+++ (+++: <−6)
15,"Cc1ncccc1-c1csc(NC(=O)c2ccc(N3CCOCC3)nc2)n1 [compound 375, N-[4-(2-methyl-3-pyridyl)thiazol-2-yl]-6-morpholino-pyridine-3-carboxamide]",+ (+: >−5)
16,"COc1ccc(C(=O)Nc2nc(-c3cnccc3C)cs2)cc1 [Compound 333, 4-methoxy-N-[4-(4-methyl-3-pyridyl)thiazol-2-yl]benzamide]",++ (++: −5 to −6)
17,"COc1ccc(C(=O)Nc2nc(-c3ccc(Cl)cc3Cl)cs2)cc1 [Compound 300, N-(4-(2,4-dichlorophenyl)thiazol-2-yl)-4-methoxybenzamide]",++ (++: −5 to −6)
18,"CN1CCN(C(=O)c2ccc(C(=O)Nc3nc(-c4ccccc4Cl)cs3)nc2)CC1 [compound 437, N-(4-(2-chlorophenyl)thiazol-2-yl)-5-(4-methylpiperazine-1-carbonyl)picolinamide]",++ (++: −5 to −6)
